Columns and labels:
[1] = test system: short-term memory (working memory); experiment: Y-maze spontaneous alternation test; format: in vivo, C57Bl/6J mice; details: WT mice, 8 mg/kg subcutaneous, 28 days
Description: FIG. 13. Plots illustrating the effect of Aftin-5 on short-term memory (working memory) in Y maze. C57B1/6J mice were exposed sub-cutaneously to Aftin-5 at 8 mg/kg (A8) or vehicle (DMSO/PEG; Veh) during 28 days through an Alzet pump. 3-4 weeks later, cognitive abilities were assessed by the means of the total number of arm entries (A) and the percentage of alternation (B). Mann-Whitney tests were performed and **p<0.01 indicates significant differences between Aftin-5 and control conditions. Data expressed as means+/−SEM with n=15 mice/condition. The spontaneous alternation test (Y maze) is a test to evaluate the short-term memory (working memory) of the animal. This test is carried out in a Y-maze with arms customized by different forms; squares (A), triangles (B) and lines (C). The mouse is placed in one of the arms for 8 min. In this test, the mouse is free to explore spontaneously the three arms of the Y-maze (FIG. 1). During the session, the number of entries of each arm of the Y-maze is counted. At the end of the session, the number of possibility (number of total entries in the arms) and the number of spontaneous alternation are calculated. An alternation is defined by consecutive entries in the three different arms (A-B-C). A mouse with a normal phenotype will tend to explore the novelty. […]

PSD95 = PSD95 mRNA in OHSC (RT-qPCR); format: cell-based; details: OHSCs from WT mice, 50 μM, 10 days
Description: FIG. 15. Plots illustrating the effect of Aftin-5 on relative mRNA expression levels of Long Term Potentialisation (LTP) biomarkers, i.e CREB (A), PSD95 (B) and BDNF (C) in C57B16J OHSC mice treated chronically with Aftin-5. OHSC culture media of OHSC were replaced by incubation medium containing Aftin-5 (50 μM; A50) or vehicle (0.1% DMSO; Veh). 10 days later, total mRNA in lysate was isolated and purified, cDNAs were then synthesized from […] of total mRNA. cDNAs were amplified by quantitative RT-PCR and the relative expression of specific genes was normalized to the housekeeping gene HPRT1 (2^—ΔCt). […] Data expressed as means+/−SEM from q=3 independent experiments with n=4-6 inserts/condition and 10 slices/insert. […]
The impact of Aftin-5 on gene expression of different biomarkers was determined by measuring mRNA levels of selected BDNF, CREB, PS95, INS Receptor/IGF-1 receptor, IL-1β, IL-6 in OHSC treated chronically with Aftin-5 or in a total brain from mice exposed to Aftin-5 at either 8 or 30 mg/Kg. […] RNA concentration was measured spectrophotometrically at 260 nm in a NanoDrop 2000c (Thermo Scientific, Villebon-sur-Yvette, France) (sample A260 nm/A280 nm ratios over 1.8 indicated reduced genomic DNA contamination). cDNAs were synthesized from 0.5 μg of total RNA with RT^2 First Strand kit (Qiagen, Courtaboeuf, France) according to the manufacturer's protocol and stored at −80° C. […]

p-Tau (Thr212) = experiment: p-Tau (Thr212)/total Tau in rat cortical neurons (western-blot); format: cell-based; details: purine derivative 10 μM (A100), 18 h
Description: Cells were lysed in freshly prepared lysis buffer containing in mM: Tris-HCl 50, EDTA 2, EGTA 2, NaCl 100, SDS 0.2%, Triton X-100 1%, proteases inhibitors (Roche Protease Inhibitor Cocktail #04693116001), phosphatases inhibitors (in mM: ammonium molybdate 0.1, β-glycerophosphate 20, NaF 50, Na-pyrophosphate 10, Orthovanadate 1). Protein concentration was measured by the Bradford assay and Laemmli buffer was added to each lysate. Proteins (10 μg per lane) were resolved on 12% Nu-PAGE (LifeTechonoliges #NP0342BOX) using MOPS SDS running buffer and transferred on Immobilon-FL PVDF membrane (Millipore #IPFL00010). Membranes were blocked one hour in TBS Tween20 0.1% BSA 5% at room temperature. Primary antibodies were incubated O/N at 4° C. and detected by Alexa 488 conjugated secondary antibodies (Life Techonologies #A11034 and A11029) diluted 1:1.000 in TBS Tween20 0.05% and 1% BSA. The antibodies specific for pThr212-Tau (Abcam #ab4842), pThr181-Tau (AbCam #ab75679), Tau (Millipore #MAB361), APP (Millipore #07-667) and Actin (Millipore #MAB1501) were diluted in TBS Tween20 0.05% and 1% BSA. Fluorescent signal was visualized with the VersaDoc™ Imaging System (Bio-Rad Laboratories) and quantified with Quantity One® Analysis Software. Grey levels measured for bands of interest were normalized to the corresponding actin bands.
For assessing the protein Tau's phosphorylation, the culture media of rat cortical neurons were replaced by incubation medium containing purine derivatives at 10 μM (A100) or vehicle (0.1% DMSO; Control). After 18 h incubation p-Tau (Thr212) and total Tau were quantified in the cellular extracts by western-blot.

With `CC[C@H](CO)Nc1nc(N(C)c2ccccc2)c2ncn(C(C)C)c2n1` [Aftin-5] the “spatial memory in Y-maze” value [1] was “improved spatial memory”, the “PSD95 mRNA” value (PSD95) was “transcriptional upregulation” and the “Attenuation of P-Tau/Tau ratio” value (p-Tau (Thr212)) was “+(>1 μM) (“+” means that the tested compound shows an anti-inflammatory and/or attenuation of Tau's phosphorylation property with a concentration higher than 1 μM)”.

Reference: patent publication US11472807B2, “Purine derivatives for use as medicament and for use in treating neurodegenerative or neuro-inflammatory disorders” (COMMISSARIAT À L'ENERGIE ATOMIQUE ET AUX ENERGIES …, priority 2017, dated 2022)
